Laboratory results as given in ChEMBL document CHEMBL5352401, “Novel cudraisoflavone J derivatives as potent neuroprotective agents for the treatment of Parkinson's disease via the activation of Nrf2/HO-1 signaling” (Eur J Med Chem, 2022).
Calls of active or inactive are those of the source. The calls are words filed in the database; no cut-off is given here.

Columns and labels:
PC-12 [1] = experiment: Cytotoxicity in rat PC-12 cells assessed as cell viability measured at 10 uM for 24 hrs by MTT assay; assay type: functional, cell-based
PC-12 [2] = experiment: Neuroprotective activity against 6-OHDA-induced cytotoxicity in rat PC-12 cells at 10 uM for 4 hrs followed by exposure to 6-OHDA measured after 24 hrs by MTT assay; assay type: functional, cell-based; details: time 28.0 hrs
PC-12 [3] = experiment: Neuroprotective activity against 6-OHDA-induced cytotoxicity in rat PC-12 cells at 30 uM for 4 hrs followed by exposure to 6-OHDA measured after 24 hrs by MTT assay; assay type: functional, cell-based; details: time 28.0 hrs
Monoamine oxidase = target: T1, Monoamine oxidase (Mus musculus, UniProt Q8BW75+Q64133); experiment: Inhibition of mouse brain mitochondrial MAO using kynuramine as substrate incubated for 15 mins measured fluorometric analysis; assay type: mitochondria, Mitochondria
T1 sequence (Q8BW75 whole entry): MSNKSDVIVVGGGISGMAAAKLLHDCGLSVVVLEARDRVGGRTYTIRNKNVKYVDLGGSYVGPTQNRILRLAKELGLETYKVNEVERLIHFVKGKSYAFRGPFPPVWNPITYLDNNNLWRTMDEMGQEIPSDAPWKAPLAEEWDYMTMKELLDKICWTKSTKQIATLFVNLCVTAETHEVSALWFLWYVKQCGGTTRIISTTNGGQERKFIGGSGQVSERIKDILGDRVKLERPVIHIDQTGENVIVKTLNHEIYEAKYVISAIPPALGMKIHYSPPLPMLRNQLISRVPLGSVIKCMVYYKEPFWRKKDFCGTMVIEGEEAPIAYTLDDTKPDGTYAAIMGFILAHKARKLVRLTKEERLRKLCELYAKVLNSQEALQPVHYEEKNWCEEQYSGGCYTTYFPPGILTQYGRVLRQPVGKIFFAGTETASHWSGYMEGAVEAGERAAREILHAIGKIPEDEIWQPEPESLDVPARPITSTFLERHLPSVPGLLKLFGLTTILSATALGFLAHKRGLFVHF
T1 sequence (Q64133 whole entry): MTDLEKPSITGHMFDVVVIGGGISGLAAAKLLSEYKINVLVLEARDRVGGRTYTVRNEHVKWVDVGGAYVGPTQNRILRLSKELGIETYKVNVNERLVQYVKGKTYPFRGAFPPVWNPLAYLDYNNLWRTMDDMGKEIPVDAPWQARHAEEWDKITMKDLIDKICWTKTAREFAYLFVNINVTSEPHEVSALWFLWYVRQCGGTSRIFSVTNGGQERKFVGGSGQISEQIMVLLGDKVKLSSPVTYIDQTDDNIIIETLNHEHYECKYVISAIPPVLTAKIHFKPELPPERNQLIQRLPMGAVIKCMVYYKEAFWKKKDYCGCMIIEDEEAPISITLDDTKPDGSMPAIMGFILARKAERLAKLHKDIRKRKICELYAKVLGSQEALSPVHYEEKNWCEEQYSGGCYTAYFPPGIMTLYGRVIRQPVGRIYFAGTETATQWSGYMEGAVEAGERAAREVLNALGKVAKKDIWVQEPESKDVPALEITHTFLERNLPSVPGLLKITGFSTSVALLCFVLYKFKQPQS

PC-12 [4] = experiment: Cytotoxicity in rat PC-12 cells assessed as cell viability measured at 30 uM for 24 hrs by MTT assay; assay type: functional, cell-based
PC-12 [5] = experiment: Neuroprotective activity against 6-OHDA-induced cytotoxicity in rat PC-12 cells for 4 hrs followed by exposure to 6-OHDA measured after 24 hrs by MTT assay; assay type: functional, cell-based; details: dose 0.1-30 µM, time 28.0 hrs
PC-12 [6] = experiment: Cytotoxicity in rat PC-12 cells assessed as cell viability incubated for 24 hrs by MTT assay; assay type: functional, cell-based; details: PC-12, 24 h
[7] = Neurotoxicity in rotenone induced at rat PC-12 cells assessed as cell viability at 30 uM pretreated for 4 hrs followed by rotenone addition measured after 24 hrs by MTT assay (reference value: 53.4 +/- 2.6%); assay type: toxicity, cell-based; details: time 28 hrs, read-out: Activity
[8] = Neurotoxicity in rotenone induced at rat PC-12 cells assessed as cell viability pretreated with compound for 4 hrs followed by rotenone addition measured after 24 hrs by MTT assay; assay type: toxicity, cell-based
Brain = experiment: Antioxidant activity in Fe2+/L-ascorbic acid induced Sprague-Dawley rat brain homogenate assessed as inhibition of lipid peroxide production measured at 100 uM after 60 mins by microplate reader method relative to control; assay type: functional, tissue-based
PC-12 [9] = experiment: Antiinflammatory activity in 6-OHDA-induced cytotoxicity in rat PC-12 cells assessed as reduction of ROS production pretreated at 10 to 30 uM for 4 hrs followed by 6-OHDA addition treated for 6 hrs measured after 1 hr of H2-DCFDA addition by measuring fluorescence; assay type: functional, cell-based; details: dose 10-30 µM, time 11.0 hrs
PC-12 [10] = experiment: Antiinflammatory activity in rotenone induced cytotoxicity in rat PC-12 cells assessed as reduction of ROS production pretreated at 10 to 30 uM for 4 hrs followed by rotenone addition treated for 6 hrs measured after 1 hr of H2-DCFDA addition by measuring fluorescence; assay type: functional, cell-based; details: dose 10-30 µM, time 11.0 hrs
PC-12 [11] = experiment: Antiinflammatory activity in 6-OHDA-induced cytotoxicity in rat PC-12 cells assessed as reduction of fluorescence signal pretreated at 10 to 30 uM for 4 hrs followed by 6-OHDA addition treated for 6 hrs measured after 1 hr of H2-DCFDA addition by spectrophotometric analysis; assay type: functional, cell-based; details: dose 10-30 µM, time 11.0 hrs
PC-12 [12] = experiment: Antiinflammatory activity in rotenone induced cytotoxicity in rat PC-12 cells assessed as reduction of fluorescence signal pretreated at 10 to 30 uM for 4 hrs followed by rotenone addition treated for 6 hrs measured after 1 hr of H2-DCFDA addition by spectrophotometric analysis; assay type: functional, cell-based; details: dose 10-30 µM, time 11.0 hrs
PC-12 [13] = experiment: Neuroprotective activity in rat PC-12 cells assessed as upregulation of HO-1 expression measured at 10 uM after 3 to 6 hrs by immunoblotting analysis; assay type: functional, cell-based; details: time 3-6 hrs
PC-12 [14] = experiment: Neuroprotective activity in rat PC-12 cells assessed as upregulation of HO-1 expression measured for 6 hrs by immunoblotting analysis; assay type: functional, cell-based; details: dose 1-30 µM
PC-12 [15] = experiment: Neuroprotective activity in rat PC-12 cells assessed as fold increase in upregulation of HO-1 expression measured at 30 uM for 6 hrs by immunoblotting analysis; assay type: functional
PC-12 [16] = experiment: Cytotoxicity in 6-OHDA induced rat PC-12 cells assessed as cell viability pretreated with ZnPP for 30 mins followed by compound addition at 10 uM for 4 hrs and measured after 24 hrs of […] addition by MTT assay; assay type: functional, cell-based; details: time 28.0 hrs
[17] = target: T2, Nuclear factor erythroid 2-related factor 2 (Rattus norvegicus) (UniProt O54968); experiment: Induction of Nrf2 nuclear translocation in rat PC12 cells at 10 uM for 3 hrs by Western blotting analysis; assay type: cell-based; details: PC-12, filed as activator
T2 sequence (whole entry): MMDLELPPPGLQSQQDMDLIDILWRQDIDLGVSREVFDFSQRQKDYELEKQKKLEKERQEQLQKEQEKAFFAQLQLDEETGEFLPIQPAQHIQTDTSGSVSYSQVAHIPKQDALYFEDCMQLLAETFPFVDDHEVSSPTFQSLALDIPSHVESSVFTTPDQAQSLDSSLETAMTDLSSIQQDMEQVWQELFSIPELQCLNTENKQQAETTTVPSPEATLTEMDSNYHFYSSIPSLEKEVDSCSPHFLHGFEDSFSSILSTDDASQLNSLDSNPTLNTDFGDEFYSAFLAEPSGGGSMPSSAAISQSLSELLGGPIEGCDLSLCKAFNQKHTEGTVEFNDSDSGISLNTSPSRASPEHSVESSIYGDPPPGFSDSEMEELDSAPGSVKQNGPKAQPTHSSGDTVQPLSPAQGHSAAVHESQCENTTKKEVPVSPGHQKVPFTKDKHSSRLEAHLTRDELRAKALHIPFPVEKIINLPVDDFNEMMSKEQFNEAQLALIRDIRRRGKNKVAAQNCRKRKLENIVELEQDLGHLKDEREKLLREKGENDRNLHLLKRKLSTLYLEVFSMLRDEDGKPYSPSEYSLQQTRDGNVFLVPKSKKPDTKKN

PC-12 [18] = experiment: Upregulation of HO-1 expression in si-RNA mediated Nrf2 knock down rat PC-12 cells measured by immunoblotting analysis; assay type: functional, cell-based
[19] = target: KEAP1/NRF2 (Rattus norvegicus) (UniProt O54968+P57790); experiment: Inhibition of Nrf2-Keap1 protein-protein interaction in rat PC-12 cells by Western blotting analysis; assay type: cell-based
[20] = target: T2, Nuclear factor erythroid 2-related factor 2 (Rattus norvegicus); experiment: Induction of Nrf2 nuclear translocation in rat PC12 cells assessed as increase in phosphorylation of ERK1 at 10 uM for 2 to 3 hrs by Western blotting analysis; assay type: cell-based; details: PC-12, filed as activator, time 2-3 hrs
[21] = target: T2, Nuclear factor erythroid 2-related factor 2 (Rattus norvegicus); experiment: Induction of Nrf2 nuclear translocation in rat PC12 cells assessed as increase in phosphorylation of ERK2 at 10 uM for 2 to 3 hrs by Western blotting analysis; assay type: cell-based; details: PC-12, filed as activator, time 2-3 hrs
[22] = target: T2, Nuclear factor erythroid 2-related factor 2 (Rattus norvegicus); experiment: Induction of Nrf2 nuclear translocation in rat PC12 cells assessed as increase in phosphorylation of JNK at 10 uM for 2 to 3 hrs by Western blotting analysis; assay type: cell-based; details: PC-12, filed as activator, time 2-3 hrs
[23] = target: T2, Nuclear factor erythroid 2-related factor 2 (Rattus norvegicus); experiment: Induction of Nrf2 nuclear translocation in rat PC12 cells assessed as increase in phosphorylation of AKT at 10 uM for 2 to 3 hrs by Western blotting analysis; assay type: cell-based; details: PC-12, filed as activator, time 2-3 hrs
[24] = target: T2, Nuclear factor erythroid 2-related factor 2 (Rattus norvegicus); experiment: Induction of Nrf2 nuclear translocation in rat PC12 cells assessed as change in phosphorylation of p38 MAPK level at 10 uM for 2 to 3 hrs by Western blotting analysis; assay type: cell-based; details: PC-12, time 2-3 hrs
[25] = target: T2, Nuclear factor erythroid 2-related factor 2 (Rattus norvegicus); experiment: Induction of Nrf2 nuclear translocation in rat PC12 cells assessed as increase in phosphorylation of ERK1 pretreated with U0126 for 2 hrs followed by compound addition at 10 uM for 2 to 3 hrs by Western blotting analysis; assay type: cell-based; details: PC-12, time 2-3 hrs
[26] = target: T2, Nuclear factor erythroid 2-related factor 2 (Rattus norvegicus); experiment: Induction of Nrf2 nuclear translocation in rat PC12 cells assessed as increase in phosphorylation of ERK2 pretreated with U0126 for 2 hrs followed by compound addition at 10 uM for 2 to 3 hrs by Western blotting analysis; assay type: cell-based; details: PC-12, time 2-3 hrs
[27] = target: T2, Nuclear factor erythroid 2-related factor 2 (Rattus norvegicus); experiment: Induction of Nrf2 nuclear translocation in rat PC12 cells assessed as increase in phosphorylation of JNK pretreated with SP600125 for 2 hrs followed by compound addition at 10 uM for 2 to 3 hrs by Western blotting analysis; assay type: cell-based; details: PC-12, time 2-3 hrs
[28] = target: T2, Nuclear factor erythroid 2-related factor 2 (Rattus norvegicus); experiment: Induction of Nrf2 nuclear translocation in rat PC12 cells assessed as increase in phosphorylation of Akt pretreated with LY294002 for 2 hrs followed by compound addition at 10 uM for 2 to 3 hrs by Western blotting analysis; assay type: cell-based; details: PC-12, time 2-3 hrs
[29] = target: T2, Nuclear factor erythroid 2-related factor 2 (Rattus norvegicus); experiment: Inhibition of Nrf2 nuclear translocation in rat PC12 cells assessed as increase in phosphorylation of p38 MAPK pretreated with SB203580 for 2 hrs followed by compound addition at 10 uM for 2 to 3 hrs by Western blotting analysis; assay type: cell-based; details: PC-12, time 2-3 hrs
PC-12 [30] = experiment: Reversal of upregulation of HO-1 in rat PC-12 cells pretreated with U0126 for 2 hrs followed by compound addition at 10 uM for 2 to 3 hrs by Western blotting analysis; assay type: functional, cell-based; details: time 2-3 hrs
PC-12 [31] = experiment: Reversal of upregulation of HO-1 in rat PC-12 cells pretreated with SP600125 for 2 hrs followed by compound addition at 10 uM for 2 to 3 hrs by Western blotting analysis; assay type: functional, cell-based; details: time 2-3 hrs
PC-12 [32] = experiment: Reversal of upregulation of HO-1 in rat PC-12 cells pretreated with LY294002 for 2 hrs followed by compound addition at 10 uM for 2 to 3 hrs by Western blotting analysis; assay type: functional, cell-based; details: time 2-3 hrs

CC1(C)Oc2c(c(O)cc3occ(-c4ccco4)c(=O)c23)CC1O (stereo unspecified)
Activity (PC-12 [1]): Active
Activity (PC-12 [2]): Active
Activity (PC-12 [3]): inactive

CC1(C)C=Cc2c(cc3occ(-c4ccc(O)cc4)c(=O)c3c2O)O1 [ALPINUMISOFLAVONE]
IC50 (Monoamine oxidase): 25.8 µM
Activity (PC-12 [4]): Active

COc1ccc(-c2coc3cc(O)c4c(c3c2=O)OC(C)(C)C=C4)cc1
Activity (PC-12 [3]): Active
Activity (PC-12 [4]): inactive
Activity (PC-12 [5]): Dose-Dependent Effect
IC50 (PC-12 [6]): 3.9 µM
viability at 30 µM [7]: ≤ 81.8%
IC50 [8]: 4.8 µM
inhibition (Brain): 28.8%
Activity (PC-12 [9]): Active
Activity (PC-12 [10]): Active
Activity (PC-12 [11]): Active
Activity (PC-12 [12]): Active
Activity (PC-12 [13]): Active
Activity (PC-12 [14]): Dose-Dependent Effect
fold change (FC) (PC-12 [15]): 2
Activity (PC-12 [16]): Active
Activity [17]: Active
Activity (PC-12 [18]): inactive
inhibition [19]: Active
Activity [20]: Active
Activity [21]: Active
Activity [22]: Active
Activity [23]: Active
Activity [24]: inactive
Activity [25]: inactive
Activity [26]: inactive
Activity [27]: inactive
Activity [28]: inactive
inhibition [29]: Active
Activity (PC-12 [30]): Active
Activity (PC-12 [31]): Active
Activity (PC-12 [32]): Active
